Values quoted from earlier work as cited in EP0262930B1, “Process for forming a colour positive image” (KONICA CORPORATION, priority 1986, dated 1988).

Details: partition coefficient n-octanol/water; solvents not desired in the color developing solution

Structure (SMILES)	log P
CCCCCO [1-Pentanol]	log P 0.4 or more
OCc1ccccc1 [Benzyl alcohol]	log P 1.0
Oc1ccccc1 [Phenol]	log P 0.4 or more
OCCOCc1ccccc1 [2-Benzyloxyethanol]	log P 0.41

Other lines, results leading:

log P	Structure (SMILES)
log P 0.41.	CCCCOCCOCCO [Diethylene glycol monobutyl ether]
log P 0.4 or more	OCc1ccc(O)cc1 [p-Hydroxybenzyl alcohol]
log P 1.36	Cc1ccc(CO)cc1 [p-Tolylcarbinol]
log P 0.4 or more	NCc1ccccc1 [Benzylamine]
